{
  "source": "patent US6822146B2",
  "about": "“Sulfonylurea-tolerant sunflower line M7” (priority 2000, dated 2004)",
  "key": {"[1]": {"test_system": "M5M7", "experiment": "Test B greenhouse phytotoxicity, M5M7", "format": "in vivo, sunflower", "conditions": "in vivo", "description": "(§1) A greenhouse experiment was conducted to evaluate the spectrum of tolerance of three homozygous resistant mutants to various herbicides inhibiting acetolactate synthase (ALS) as their mode of action. The inbred lines tested were the 5th generation self-pollinated maintainers, M5M7, M5M11 and M5M12, as well as the 4th generation male sterile back-crosses BC4-M5M7, BC4-M5M11 and BC4-M5M12. Treatments of formulated herbicides were applied post-emergence at the 4-leaf stage. Application rates of the test herbicides were chosen to coincide with the rates commonly used in the crops for which they are registered. The application rate of imazethapyr was chosen to match the rate recommended to control parasitic weeds in sunflowers by L. García-Torres et al., Weed Technology 1995, 9, 819-824. Wild type H89 inbred sunflower was not included in this test, because the many of the tested herbicides are known to be efficacious in controlling volunteer sunflower as a weed. Treatments were replicated twice. […] A rating of 0% phytotoxicity means no crop injury."}, "[2]": {"test_system": "M5M11", "experiment": "Test B greenhouse phytotoxicity, M5M11", "format": "in vivo, sunflower", "conditions": "in vivo", "description": "as §1"}, "[3]": {"test_system": "M5M12", "experiment": "Test B greenhouse phytotoxicity, M5M12", "format": "in vivo, sunflower", "conditions": "in vivo", "description": "as §1"}, "[4]": {"test_system": "BC4-M5M7", "experiment": "Test B greenhouse phytotoxicity, BC4-M5M7", "format": "in vivo, sunflower", "conditions": "in vivo", "description": "as §1"}, "[5]": {"test_system": "BC4-M5M11", "experiment": "Test B greenhouse phytotoxicity, BC4-M5M11", "format": "in vivo, sunflower", "conditions": "in vivo", "description": "as §1"}, "[6]": {"test_system": "BC4-M5M12", "experiment": "Test B greenhouse phytotoxicity, BC4-M5M12", "format": "in vivo, sunflower", "conditions": "in vivo", "description": "as §1"}, "[7]": {"test_system": "homozygous progeny of the three mutant sources", "format": "in vivo, sunflower", "conditions": "Test B application rates, post-emergence", "description": "as §1"}, "[8]": {"test_system": "Orobanche cumana", "experiment": "Test E control of Orobanche cumana in resistant sunflower hybrid", "format": "in vivo", "description": "The effect of the various treatments was evaluated 35 days after sowing. The sunflower roots were cleaned by washing in water, and the presence of Orobanche nodules was determined visually and by weighing root wet mass in comparison to check plants free of Orobanche infestation. […] The nodules caused by Orobanche increased root weight, and a correlation (r=0.7) was found between visual scores and weight measurements. Thus the weighing technique could be used to corroborate visual efficacy scorings. Orobanche emergence was also scored but found to be less useful to evaluate treatment efficiency at the evaluation timing of this test.\n(§2) Based on the results from Test D, a modified protocol was developed to include three timings of post-emergence treatment. The hybrid BC4-M5M12 (female parent)×PHA155 restorer line (male parent) described in Test C was used in this test. Various herbicide programs were tested using three replications. […] Seed coatings of these formulated herbicides were applied to 6 kg of seeds in such amount that considering the distribution of the coated seeds in each pot, the herbicide active ingredient (a.i.) application rates per hectare were as indicated.\n(§3) The treatments were applied similar to the methods described for Test D. Pre-emergence applications were broadcast only, not soil incorporated. For pre-emergence application, the pots were sprayed using the high rates of the herbicides two days after sowing the sunflower seeds. Post-emergence treatments were applied at the 4-6 leaf stage of sunflower (corresponding to early stage of Orobanche attachment; identified as “T1”), the 6-8 leaf stage of sunflower (corresponding to the mid stage of Orobanche attachment; nodules <5 mm diameter; identified as “T2”) and 8-12 leaf stage of sunflower (corresponding to late stage of Orobanche attachment; identified as “T3”). The mid-stage applications included the high as well as low application rates of each herbicide.\n(§4) For comparison were also included in this test other acetolactate synthase-inhibiting herbicides reported in the literature as giving good weed control of Orobanche (L. García-Torres et al., Weed Research 1994, 34, 395-402; L. García-Torres et al., Weed Technology 1995, 9, 819-824; J. Hershenhorn et al., Weed Technology 1998, 12, 108-114)."}, "[9]": {"test_system": "BC4-M5M12 × PHA155 hybrid", "experiment": "Test E injury to sunflower hybrid", "format": "in vivo", "conditions": "in vivo", "description": "as §2, §3, §4"}, "[10]": {"test_system": "O. cernua", "conditions": "preemergence application of a low dose (2 to 6 g/ha), with sunflower tolerance; cited from earlier work"}, "[11]": {"test_system": "'HA89B' seed", "experiment": "Determination of optimum mutagen concentration", "format": "in vivo, sunflower", "conditions": "EMS 20 to 40 mM", "description": "Batches each consisting of 6000 seeds of ‘HA89B’ were incubated in 0.1 M potassium phosphate buffer (pH 5.6), supplemented with concentrations of EMS between 0 and 80 mM for 18 hours at room temperature, causing the seeds to swell. The seeds were rinsed in sodium thiosulfate for 1 minute to decompose the EMS, then in 5 consecutive water washes to eliminate EMS traces. The overall rinsing procedure lasted 5 hours. Seeds were dried for 2 hours at 25° C. using an airflow drier and then divided into sub-batches of 200 seeds each. To determine the effect of EMS on germination and plant branching, sub-batches were sown in flats right after drying and following 2, 4 and 6 days of storage at 4° C. after drying. Plant branching was used as a visual measure of mutation frequencies. Sub-batches from each EMS concentration were also sown in pots right after drying and grown to maturity to determine effect of EMS treatments on seed setting."}},
  "data": [
    {"smiles": "COc1nc(C)nc(NC(=O)NS(=O)(=O)c2ccccc2Cl)n1", "note": "[Chlorsulfuron, chlorsulfuron]", "values": [
      {"measurement": "Maximum Phytotoxicity", "setting": "[1]", "result": 47.5, "unit": "%"},
      {"measurement": "Maximum Phytotoxicity", "setting": "[2]", "result": 50, "unit": "%"},
      {"measurement": "Maximum Phytotoxicity", "setting": "[3]", "result": 45, "unit": "%"},
      {"measurement": "Maximum Phytotoxicity", "setting": "[4]", "result": 45, "unit": "%"},
      {"measurement": "Maximum Phytotoxicity", "setting": "[5]", "result": 50, "unit": "%"},
      {"measurement": "Maximum Phytotoxicity", "setting": "[6]", "result": 45, "unit": "%"},
      {"measurement": "tolerance of the mutants", "setting": "[7]", "result": "somewhat sensitive"},
      {"measurement": "relative efficacy in controlling Orobanche", "setting": "[8]; Test E rates, metsulfuron-methyl compared with tribenuron-methyl", "result": "less efficacious in controlling Orobanche"},
      {"measurement": "Control", "setting": "[8]; pre-emergence 2 g a.i./ha", "result": 13, "unit": "%"},
      {"measurement": "Control", "setting": "[8]; pre-emergence 10 g a.i./ha", "result": 58, "unit": "%"},
      {"measurement": "Injury", "setting": "[9]", "result": 0, "unit": "%"},
      {"measurement": "control of O. cernua", "setting": "[10]", "result": "75-85%"}
    ]},
    {"smiles": "CCOS(C)(=O)=O", "note": "[EMS, ethyl methanesulfonate]", "values": [
      {"measurement": "plants producing viable seed", "setting": "[11]", "result": "more than half of the plants produced viable seed"},
      {"measurement": "plant branching (visual measure of mutation frequencies)", "setting": "[11]; about 12% of plants from untreated seeds branched", "result": "more than half of the plants were branched"}
    ]}
  ]
}
